The source of these data is patent US7261876B2, “Multivalent constructs for therapeutic and diagnostic applications” (Bracco International BV, priority 2002, dated 2007).

The test system of test [1] is HUVECs. The test is described as follows: Endothelial cell proliferation assay, BrdU detection. The test is classed as cell-based, human. The conditions noted are these: 10 μg/mL, in the presence of VEGF (30 ng/mL). How it is done:
Briefly, freshly isolated HUVECs (between p3–6) were cultured in RPMI+10% FCS+1% antibiotics+1% 1-glutamin+0.4% BBE (bovine brain extract) and seeded per well, 5000–10000/well in 100 μL. The cells were allowed to recover for 24 h prior to use. Then the cells were washed with PBS twice and treated for 48 h with anti-VEGF antibody (positive control) or peptides A, B and C (0.1 and 10 ug/mL) in RPMI+0.1% BSA+1% 1-glutamin. The following 6 variables were tested in 2 series (n=4): • Series I: w/o VEGF • Series II: w/VEGF (30 ng/mL) • 1. Standard medium: RPMI+10% FCS+1% antibiotics+1% 1-glutamin+0.4% BBE • 2. Negative control 1: RPMI (true starvation) • 3. Negative control 2: RPMI+0.1% BSA+1% 1-glutamin • 1. Positive control: anti-VEGF 10 μg/ml in RPMI+0.1% BSA+1% 1-glutamin • 5. 0.1 μg/ml KDR peptides in RPMI+0.1% BSA+1% 1-glutamin • 6. […] Note: Background binding was determined by omitting the anti-BrdU antibody in 4 wells with control cells (cultured in complete medium; EBM+BulletKit) and by complete labeling of cells that was not exposed to BrdU.

In test [2] the target is T1, KDR-expressing 293H cells (Homo sapiens, UniProt P35968).
T1 construct: Both PCR products were digested with Not1 and ligated together to create the full-length receptor; V5-His (encoded by the vector); expressed in transfected cells; host or cells: 293H cells (Invitrogen cat. # 11631), transient lipofectamine 2000 transfection
The test is described as follows: Bead-binding assay, peptide-conjugated fluorescent beads. The test is classed as cell-based. The following applies: Neutravidin-coated beads, 40% FBS. How it is done:
As a positive control, biotinylated anti-KDR antibody was incubated with the Neutravidin-coated beads as above, except that 0.03 mg of the biotinylated antibody preparation in PBS (Gibco 14190-136) was used instead of peptide solution. Beads can be stored at 4° C. until needed for up to 1 week.
293H cells were transfected using the protocol described in Example 6. Transfection was done in black/clear 96-well plates (Becton Dickinson, cat. # 354640). The cells in one half of the plate (48 wells) were mock-transfected (with no DNA) and those in the other half of the plate were transfected with KDR cDNA. The cells were 80–90% confluent at the time of transfection and completely confluent the next day, at the time of the assay; otherwise the assay was aborted.
From the above bead preparations, 0.12 mL was spun for 10 minutes at 2000 rpm in a microcentrifuge at room temperature. The supernatant was removed and 0.06 mL of MES pH 6.0 was added. Each bead solution was then vortexed and sonicated in a water bath 15 min. To 1.47 mL of DMEM, high glucose (GIBCO 11965-084) with 1×MEM Non-Essential Amino Acids Solution (NEAA) (GIBCO 11140-050) and 40% FBS (Hyclone SH30070.02) 0.03 mL of the sonicated bead preparations was added. 96-well plates seeded with 293H cells which have been mock-transfected in columns 1 to 6, and KDR-transfected in columns 7 to 12 (as described above), were drained and washed once with DMEM, high glucose with 1×NEAA and 40% FBS. To each well was added 0.1 mL of bead solution, six wells per bead preparation. […] After draining, 0.1 mL of PBS was added per well. The plates were then read on a Packard FluoroCount fluorometer at excitation 550 nm/emission 620 nm. Unconjugated Neutravidin beads were used as a negative control while beads conjugated with a biotinylated anti-KDR antibody were used as the positive control for the assay.
To calculate the number of beads bound per well, a standard curve with increasing numbers of the same fluorescent beads was included in each assay plate. The standard curve was used to calculate the number of beads bound per well based on the fluorescence intensity of each well.

Test [3] has as its target T2, KDR-transfected 293H cells (Homo sapiens, UniProt P35968).
T2 construct: Both PCR products were digested with Not1 and ligated together to create the full-length receptor; V5-His (encoded by the vector); expressed in transfected cells; host or cells: 293H cells (Invitrogen cat. # 11631), transient lipofectamine 2000 transfection
The test is described as follows: Binding of peptide-conjugated microbubbles to KDR-transfected cells. The class given is cell-based. How it is done:
293H cells were transfected with KDR cDNA. […] Competition was also performed using a non-binding control peptide as a competing compound.
293H cells were transfected with KDR cDNA.
D23 (a dimeric construct of P6- and P12-derived sequences) was conjugated with a preparation of microbubbles as above described, according to the following methodology. The thioacetylated peptide ([…]) was dissolved in 20 μl DMSO and then diluted in 1 ml of Phosphate Buffer Saline (PBS). This solution was mixed to the N-MPB-functionalized microbubbles dispersed in 18 ml of PBS-EDTA 10 mM, pH 7.5 and 2 ml of deacetylation solution (50 mM sodium phosphate, 25 mM EDTA, 0.5 M hydroxylamine.HCl, pH 7.5) was added. The headspace was filled with C4F10/Air (50/50) and the mixture was incubated for 2.5 hours at room temperature under gentle agitation (rotating wheel), in the dark. Conjugated bubbles were washed by centrifugation. Similarly, the monomer peptides making up D23 were separately conjugated to two different microbubble preparations according to the methodology described above.

Test [4] addresses T2, KDR-transfected 293H cells. The test is described as follows: Binding of radiolabeled (Tc, I, Lu) peptides to KDR-transfected 293H cells.
Test [5] concerns the target T3, KDR-expressing cells (Homo sapiens, UniProt P35968).
T3 construct: Both PCR products were digested with Not1 and ligated together to create the full-length receptor; V5-His (encoded by the vector); expressed in transfected cells; host or cells: 293H cells (Invitrogen cat. # 11631), transient lipofectamine 2000 transfection
The test is described as follows: Displacement assay competing with P12-XB/streptavidin-HRP complex for binding to KDR-expressing cells. The following applies: complex concentration 5.5 nM.
Method: After determining the specific binding under each experimental condition, the IC50 for each peptide was determined (where possible).

Test [6] deals with SW-480 human colon carcinoma cells. The experiment in a line: In vivo xenograft tumor model. The following applies: Study Day 22; 6.0 mg/kg IV, five doses.
Method: Female athymic nude mice (Crl:NU/NU-nuBR) at 6–8 weeks of age were used in this study. […] Test compound and vehicle were administered intraperitoneally (IP), Cisplatin was administered intravenously (IV). Tumor measurements were recorded twice weekly using hand-held calipers. Mice were monitored daily for signs of toxicity and morbidity. At study termination, animals were euthanized by carbon dioxide overdose and necropsied for tissue collection.
A total of nine (9) groups were used in this study. Each group contained ten (10) tumor-bearing mice. Groups 1 and 2 contained untreated and vehicle treated negative control mice, respectively. […] Group 9 contained mice that received cisplatin, a standard chemotherapeutic compound as a positive control.
Dosing began the same day that animals were randomly sorted into groups (Study Day 7). Each dose was removed from the dose vial using aseptic technique for each animal and the injection site was wiped with an alcohol swab prior to dose administration. […]
Clinical Observations of each animal were performed and recorded at least once daily for toxicity, morbidity and mortality. […]
In accordance with the protocol, tumor measurements were taken twice weekly throughout the study by measuring the length and width of tumors with calibrated calipers. […] Tumor weights were calculated using the following formula: mg=(L×W^2)/2. […]

No end group written: not given here.

T2 sequence (P35968 20-1356): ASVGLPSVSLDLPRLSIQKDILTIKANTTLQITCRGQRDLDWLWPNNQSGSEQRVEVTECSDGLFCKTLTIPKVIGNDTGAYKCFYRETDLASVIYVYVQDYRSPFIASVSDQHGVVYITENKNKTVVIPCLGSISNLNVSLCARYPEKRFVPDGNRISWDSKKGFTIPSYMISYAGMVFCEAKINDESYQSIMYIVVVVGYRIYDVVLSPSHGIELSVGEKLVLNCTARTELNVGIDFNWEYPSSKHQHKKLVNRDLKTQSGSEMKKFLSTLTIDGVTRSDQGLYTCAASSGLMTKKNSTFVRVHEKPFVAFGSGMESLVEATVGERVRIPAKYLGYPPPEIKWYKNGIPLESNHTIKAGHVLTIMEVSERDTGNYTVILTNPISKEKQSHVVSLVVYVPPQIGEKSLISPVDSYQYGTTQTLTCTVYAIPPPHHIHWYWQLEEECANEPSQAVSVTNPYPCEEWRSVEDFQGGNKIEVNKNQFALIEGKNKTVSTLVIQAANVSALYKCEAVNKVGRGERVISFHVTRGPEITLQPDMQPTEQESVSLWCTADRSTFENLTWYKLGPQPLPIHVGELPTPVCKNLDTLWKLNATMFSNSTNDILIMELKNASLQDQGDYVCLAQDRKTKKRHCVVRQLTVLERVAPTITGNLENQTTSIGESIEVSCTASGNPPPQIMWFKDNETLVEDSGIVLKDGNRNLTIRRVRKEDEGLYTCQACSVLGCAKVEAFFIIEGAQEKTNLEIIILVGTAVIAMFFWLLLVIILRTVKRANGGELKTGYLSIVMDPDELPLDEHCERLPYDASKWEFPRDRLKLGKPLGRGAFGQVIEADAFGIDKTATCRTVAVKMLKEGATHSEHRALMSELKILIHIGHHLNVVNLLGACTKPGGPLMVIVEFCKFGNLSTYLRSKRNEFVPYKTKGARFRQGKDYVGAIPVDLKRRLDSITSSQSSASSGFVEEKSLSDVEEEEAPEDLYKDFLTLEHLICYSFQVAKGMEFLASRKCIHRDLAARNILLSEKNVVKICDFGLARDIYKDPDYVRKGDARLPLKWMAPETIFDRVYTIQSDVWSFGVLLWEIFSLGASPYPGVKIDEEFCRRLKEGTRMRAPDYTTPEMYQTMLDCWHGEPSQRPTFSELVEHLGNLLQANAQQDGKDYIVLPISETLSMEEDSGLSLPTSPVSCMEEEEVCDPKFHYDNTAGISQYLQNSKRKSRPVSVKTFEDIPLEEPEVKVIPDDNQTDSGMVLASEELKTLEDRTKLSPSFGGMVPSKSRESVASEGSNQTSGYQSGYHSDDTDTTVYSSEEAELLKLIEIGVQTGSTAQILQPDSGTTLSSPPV
T3 sequence (P35968 20-1356): as above
T1 sequence (P35968 20-1356): as above

For `CC(=O)N[C@@H](C)C(=O)NCC(=O)N1CCC[C@H]1C(=O)N[C@H](C(=O)N[C@@H](Cc1c[nH]c2ccccc12)C(=O)N[C@H]1CSSC[C@@H](C(=O)N[C@@H](Cc2c[nH]c3ccccc23)C(=O)N[C@@H](CC(C)C)C(=O)N[C@@H](Cc2ccccc2)C(=O)NCC(=O)N[C@H](C(=O)NCC(=O)NCC(=O)NCC(=O)N[C@@H](CCCCN)C(N)=O)[C@@H](C)O)NC(=O)[C@H](Cc2ccc(O)cc2)NC(=O)[C@H](Cc2ccc(O)cc2)NC(=O)[C@H](Cc2c[nH]c3ccccc23)NC(=O)[C@H](CC(=O)O)NC(=O)[C@H](CC(=O)O)NC(=O)[C@H](CCC(=O)O)NC1=O)[C@@H](C)O` [P12-G, Ac-AGPTWC*EDDWYYC*WLFGT-GGGK-NH2], the “inhibition of HUVEC proliferation” value in test [1] was “does not inhibit proliferation”. Take GDSRVCWEDSWGGEVCFRYDP [P6]: the “binding of ligand-coated fluorescent beads to KDR-transfected vs mock-transfected cells” value in test [2] is recorded as “Specific binding to KDR was detected”. The “binding of conjugated microbubbles” value in test [3] (Experiment C, 50% human serum) is recorded as “bound poorly”. As for “Tc-labeled D18: 99mTc-labeled scrambled dimer D18 (peptide 1 APGTWCDYDWEYCWLGTFGGGK; peptide 2 GVDFRCEWSDWGEVGCRSPDYGGGK; not fully specified (bridges); cysteine pairing not given here; also: 99mTc label, site not given here, heterodimer, linkage not given here)”, in test [4], the “binding of radiolabeled compound to KDR transfected vs mock transfected 293H cells” value is “displayed no affinity for either mock-transfected or KDR-transfected 293H cells”. Ac-DWYYGGGK-NH2 [F1]: the “inhibition of P12-XB streptavidin-HRP complex binding” value in test [5] was “IC50 below one micromolar”. Turning to AGPTWCEDDWYYCWLFGT [P12], in test [3] (Experiment A, free peptide 100 μM to 3 nM), the “competition of conjugated microbubbles by free peptide” value was “competed off by the corresponding free KDR-specific peptide”. Compound `N.N.[Cl][Pt][Cl]` [Cisplatin] gave a mean tumor weight in test [6] of 995 mg.
